From patent publication EP2659887A1, “Use of A-ring aromatic acetyl minocycline and pharmaceutical preparations derived from same for treatment and prevention of inflammation, autoimmune disorders and rejection of transplants” (priority 2012, dated 2013)

Legend:
humane T-Lymphozyten [1] = test: Viability of stimulated human T lymphocytes (CellTiter-Blue Cell Viability Assay); conditions: up to 5,0 µM; PWM (Figur 2A) or anti-CD3 (Figur 2B) stimulation
Method: Humane T-Lymphozyten wurden in serumfreiem Kulturmedium mit anti-CD3-Antikörpern (Klon OKT3) bzw. mit Pokeweed-Mitogen (PWM, 2 µg/ml) in An- und Abwesenheit verschiedener Konzentrationen von Minocyclin oder Pentaacetylcyclin stimuliert. Die Ermittlung der Proliferation (DNS-Synthese) der Zellen erfolgte nach 72 Stunden über den Einbau von 3H-Thymidin. Zur Überprüfung der Vitalität der Zellkulturen wurde der CeIITiter-Blue® Cell Viability-Assay (Promega) verwendet.

[2] = system: Experimentelle Autoimmune Enzephalomyelitis (EAE); test: Experimental autoimmune encephalomyelitis (EAE) mouse model of multiple sclerosis, therapeutic treatment, EAE score; assay type: in vivo, SJL/J-Maus; conditions: 100 µg/Tag; for Effekt auf die akute Phase der EAE (EAE-Score): intraperitoneal, Tag 12 bis Tag 20, therapeutic
Excerpt: Als Maß für die Wirkung der therapeutischen Applikation wurde täglich der Schweregrad der EAE-Erkrankung (EAE-Score) bestimmt.

humane T-Lymphozyten [3] = test: Cytokine production of PWM-stimulated human T lymphocytes (ELISA of culture supernatants); assay type: cell-based; conditions: PWM 2 µg/ml, 48 h
Excerpt: Zytokine stellen Indikatoren für die Stärke einer Entzündungsreaktion dar und sind aktive Regulatoren der Differenzierung und Proliferation von T-Lymphozyten. Aus diesem Grund lassen sich aus den in einem in vitro-Testsystem gewonnenen Daten zur Produktion/Freisetzung von Zytokinen detailliertere Aussagen über die immunmodulierenden/immunsuppressiven Eigenschaften von Testsubstanzen herleiten.
Anschließend erfolgte die Messung der Konzentrationen von Interferon-y (IFN-y), Interleukin-2 (IL-2) und Interleukin-17 (IL-17) in den Zellkulturüberständen mittels spezifischer ELISA (R&D Systems).

[4] = system: Experimentelle Autoimmune Enzephalomyelitis (EAE); test: Number of inflammatory immune cell infiltrates in the spinal cord after EAE (histology); assay type: in vivo, SJL/J-Mäusen; conditions: intraperitoneal or oral, 100 µg/Tag, Tag 13 bis Tag 17; analysis Tag 20
Excerpt: Als Folge einer T-Lymphozyten-Aktivierung und -Differenzierung kommt es bei der EAE zu einer massiven Einwanderung (Infiltration) von Immunzellen in das Rückenmark der Mäuse. Diese Immunzellen vermitteln durch Demyeliniserung und neuronale Schädigung die weitere Erkrankung und lassen sich auf histologischen Schnitten als entzündliche Infiltrate darstellen und analysieren. Die Stärke der Infiltration von Immunzellen in das Rückenmark während der EAE korreliert im Allgemeinen mit dem Schweregrad der EAE-Erkrankung.
Deshalb erfolgte die histologische Analyse der entzündlichen Infiltrate im Rückenmark von SJL/J-Mäusen nach EAE und 5-tägiger therapeutischer Applikation von Minocycline bzw. Pentaacetylcyclin.
Die EAE wurde in SJL/J-Mäusen durch Immunisierung mit einem Myelinprotein-Peptid (Proteolipid-Protein 139-151, PLP 139-151) induziert. Die Applikation von Minocyclin, Pentaacetylcyclin und einem Kontroll-Vehikel erfolgte in einem therapeutischen Ansatz (nach eindeutiger Ausbildung der EAE-Erkrankung) in zwei getrennten Versuchsansätzen: • 1.) intraperitoneal (i.p., 100 µg/Tag) von Tag 13 bis Tag 17 • 2.) oral (100 µg/Tag) von Tag 13 bis Tag 17.
Am Tag 20 nach Immunisierung erfolgte die Aufarbeitung des Rückenmarks der Mäuse für histologische Untersuchungen (Paraffin-Schnitte, HE-Färbungen). […]

humane T-Lymphozyten [5] = test: Proliferation (DNA synthesis, 3H-thymidine incorporation) of stimulated human T lymphocytes; assay type: cell-based; conditions: remaining proliferation; PWM or anti-CD3 stimulation, 2,5 bis 5,0 µM
Excerpt: In in vitro-Untersuchungen dienten humane T-Lymphozyten des peripheren Blutes gesunder Spender zur Testung der immunmodulatorischen/immunsuppressiven Wirkung der Testsubstanzen. Eine gesteigerte Zellteilung/Proliferation dieser Immunzellen nach Stimulation simuliert in vitro eine Entzündungsreaktion. Eine Verringerung dieser stimulierten Proliferation durch applizierte Substanzen veranschaulicht deren immunmodulatorischen/immunsuppressiven Eigenschaften.

[6] = system: Splenozyten (Milzzellen) von SJL/J-Mäusen; test: Proliferation (DNA synthesis, 3H-thymidine incorporation) of stimulated mouse splenocytes; assay type: cell-based, Maus; conditions: 2,5 bzw. 5,0 µM
Method: (§1) In weiteren in vitro-Untersuchungen dienten Splenozyten (Milzzellen) von SJL/J-Mäusen zur Testung der immunmodulatorischen/immunsuppressiven Wirkung der Testsubstanzen. Nach Stimulation der Splenozyten mit Pokeweed-Mitogen (PWM, 1 μg/ml) oder mit […] (Klon 145-2C11, BD Biosciences) erfolgte die Inkubation dieser Immunzellen in An- oder Abwesenheit verschiedener Konzentrationen von Minocyclin und Pentaacetylcyclin. Die anschließende Proliferation (DNS-Synthese) der Zellen wurde nach 72 Stunden über den Einbau von […]-Blue® Cell Viability-Assays (Promega).

[7] = system: Splenozyten (Milzzellen) der SJL/J-Mäuse; test: Cytokine release of PWM-stimulated mouse splenocytes (ELISA of culture supernatants); assay type: cell-based, Maus; conditions: Splenocyte, remaining release at 5,0 µM, 48 h (Figur 6A), read-out: Reduktion der Freisetzung von IFN-γ (auf)
Method: Zur Verifizierung der an humanen […] in vitro-Untersuchungen an Splenozyten (Milzzellen) der SJL/J-Mäuse. Diese Splenozyten von wurden mit Pokeweed-Mitogen (PWM, 1 μg/ml) stimuliert und in An- oder Abwesenheit verschiedener Konzentrationen von Minocyclin und Pentaacetylcyclin inkubiert. Nach 48 Stunden erfolgte die Analyse der Zellkulturüberstände hinsichtlich der Freisetzung der Zytokine Interferon-y (IFN-y) und Interleukin-17 (IL-17) mittels spezifischer ELISA (R&D Systems).

[8] = system: Splenozyten (Milzzellen) von SJL/J-Mäusen; test: Viability of stimulated mouse splenocytes (CellTiter-Blue Cell Viability Assay); assay type: cell-based, Maus; conditions: up to 5,0 µM; PWM (Figur 5A) or anti-CD3 (Figur 5B) stimulation
Method: as §1

CN(C)c1ccc(O)c2c1C[C@H]1C[C@H]3[C@H](N(C)C)C(O)=C(C(N)=O)C(=O)[C@@]3(O)C(O)=C1C2=O [Minocyclin]
Vitalität der T-Lymphozyten (humane T-Lymphozyten [1]): nicht beeinträchtigt

CC(=O)NC(=O)c1c(OC(C)=O)c2c(c(N(C)C)c1OC(C)=O)CC1Cc3c(N(C)C)ccc(OC(C)=O)c3C(=O)C1=C2OC(C)=O (centres unmarked) [Pentaacetylcyclin]
Effekt auf die akute Phase der EAE (EAE-Score) [2]: signifikanten therapeutischen Effekt | Effekt auf die akute Phase der EAE (EAE-Score) ([2]; listed as Pentaacetylminocyclin): signifikanten Einfluss | Einfluss auf die akute Phase der EAE (EAE-Score) ([2]; oral, Tag 14 bis Tag 22, therapeutic): signifikanten Einfluss | Produktion/Freisetzung von IL-2 (humane T-Lymphozyten [3]; 2,5 bis 5,0 µM (Figur 3A)): signifikante Hemmung | Produktion/Freisetzung von IFN-γ (humane T-Lymphozyten [3]; 2,5 bis 5,0 µM (Figur 3B)): signifikante Hemmung | Produktion/Freisetzung von IL-17 (humane T-Lymphozyten [3]; 2,5 bis 5,0 µM (Figur 3C)): signifikante Hemmung | Vitalität der T-Lymphozyten (humane T-Lymphozyten [1]): nicht beeinträchtigt | Zahl der entzündlichen Infiltrate im Rückenmark [4]: deutliche Verringerung | reduzierte Zellteilung (bis auf) (humane T-Lymphozyten [5]): ca. 20% | Proliferation (DNS-Synthese) stimulierter Splenozyten ([6]; PWM (1 µg/ml) or anti-CD3 (145-2C11) stimulation, 72 h): signifikante Hemmung | reduzierte Zellteilung (bis auf) ([6]; remaining proliferation, 4320 min): ca. 30% | activity at 5 µM [7]: ~60% | Vitalität der Splenozyten [8]: keine Veränderung
